Test results from patent publication US20260365662A1, “ISOANDROGRAPHOLIDE ANALOGS AND METHOD FOR TREATMENT USING THE SAME” (Enveda Therapeutics, Inc., priority 2023, published 2026).

Test system: female BALB/c mouse
Experiment: MC-903 induced atopic dermatitis model, therapeutic mode, low doses (Example 16)
Type: in vivo
Conditions: p.o. twice a day; for dermatitis severity scores: 0.01 to 10 mg/kg, vs MC-903 vehicle control
Experimental: Experimental details: Preclinical animal model of atopic dermatitis was developed by MC-903, a vitamin-D analogue. In the current study, the test item Compound 2 was screened in therapeutic mode, to evaluate its efficacy in MC-903 induced AD model. 2 nmol of MC-903 was topically applied to 8-10 weeks old female BALB/c mouse from G2-G8 group at a volume of 50 μl/mouse on back skin on every alternate day for 14 days to induced disease. For the G1 group, (Normal+ethanol control) the same volume of ethanol that was used to solubilize MC-903 was applied. Clobetasol (0.05%, 15 mg/mouse) was applied topically once a day to G3 group animals. Compound 2 was administered per oral twice a day at 0.01, 0.1, 1, 3 & 10 mg/kg to respective treatment groups (G4-G8) for 14 days. On the day of MC-903 administration, test compounds were dosed one hour prior to MC-903 insult. Clinical scores to assess the disease intensity were measured from visual examination for erythema, scaling and back skin thickness using dial caliper. All the scores were carried by blinded observers to treatment groups. Disease severity was assessed by dermatitis severity scores.

## C[C@@]12CCC(=O)N[C@@](C)(CO)[C@H]1CC[C@@]1(C)O[C@H](C3=CCOC3=O)C[C@@H]21 [Compound 2, (2S,3aR,5aS,6R,10aR,10bS)-6-(hydroxymethyl)-3a,6,10a-trimethyl-2-(2-oxo-2,5-dihydrofuran-3-yl) dodecahydro-8H-benzofuro[5,4-c]azepin-8-one]
Mus musculus, po, 336 h, doses 0.01, 0.1, 1, 3, 10 mg/kg, read-out: lowest active dose (dermatitis severity scores)
  minimal effective dose: 0.1 mg/kg
  dermatitis severity scores: significant dose dependent decrease
Listed as compound 2
  dermatitis severity scores: significantly reduces
